# Literature values in patent US20250288728A1, “SYSTEMS AND METHODS FOR GEL-BASED NEUROMODULATION” (Tulavi Therapeutics, Inc., priority 2018, published 2025).
# Assays:
# [1] = tested on: TRPV1 expressing cardiac nerve endings; settings: 50 μg/ml RTX (10% ethanol in 10% Tween 80/isotonic saline) painted twice on right and left ventricles
# sympathetic ganglia = settings: in vitro; 4 μg/ml (10 uM); within 36 hours
Compound,duration of complete ablation of TRPV1 expressing cardiac nerve endings [1],sympathetic ganglia cell death (sympathetic ganglia)
"C=C(C)[C@]12C[C@@H](C)[C@@]34O[C@](Cc5ccccc5)(O[C@@H]1[C@@H]3C=C(COC(=O)Cc1ccc(O)c(OC)c1)C[C@]1(O)C(=O)C(C)=C[C@@H]41)O2 [RTX, resiniferatoxin]",over 10 weeks,–
Cholesterol oxides,–,rapid cell sympathetic ganglia cell death
